Data from the OPERA property sets (Mansouri et al. 2018).

Conditions: for log10 biotransformation half-life (days) / log10 BCF: fish

Row | SMILES | melting point [°C] | boiling point [°C] | also measured
1 | CN(C)NC(=O)CCC(=O)O | 154 | – | log10 Koc (L/kg): 0.95
2 | FC(F)(F)C1(F)C(F)(F)C(F)(F)C(F)(F)C(F)(C(F)(F)F)C1(F)F (stereo not given) | -70 | 102 | –
3 | CCCC(Cn1cncn1)c1ccc(Cl)cc1Cl (stereo not given) | 58.5 | – | log10 vapour pressure (mmHg): -5.56; log10 biotransformation half-life (days): 1.19
4 | Cc1cccc(O)c1C | 72.8 | 217 | log10 Henry constant (atm·m³/mol): -6.13; log10 vapour pressure (mmHg): -1.05
5 | C[C@@H]1O[C@@H](O[C@@H]2C=C3CC[C@@H]4[C@H](CC[C@]5(C)[C@@H](c6ccc(=O)oc6)CC[C@]45O)[C@@]3(C)CC2)[C@H](O)[C@H](O)[C@H]1O | 221 | – | –
6 | CNCCN(C)C | – | 117 | –
7 | CC(C)S(=O)(=O)O | -37 | – | –
8 | CCCCCCCCCCCCOS(=O)(=O)[O-].[Na+] | 206 | – | –
9 | C=Cc1c(C)cc(C)cc1C | -37 | 209 | –
10 | CC(C)c1cc(C(C)C)c(C(C)C)cc1C(C)C | 118 | 259 | log10 vapour pressure (mmHg): -2.7
11 | CC(=O)NC(=O)c1ccccc1O | 148 | – | –
12 | O=C1CCOCC1 | – | 166 | –
13 | CCOc1ccccc1C | – | 184 | –
14 | COCC(C)OCC(C)OCC(C)O (stereo not given) | – | 250 | log10 vapour pressure (mmHg): -1.7
15 | CCSC(C)=O | – | 116 | –
16 | CC1CC(OC(=O)C(O)c2ccccc2)CC(C)(C)N1C (stereo not given) | 113 | – | –
17 | FC(F)(F)Br | -172 | -57.8 | log10 Henry constant (atm·m³/mol): -0.302; log10 vapour pressure (mmHg): 4.09
18 | CCCC(=O)C(=O)OCC | – | 182 | –
19 | COc1cc(CC#N)ccc1O | 56.5 | – | –
20 | CCCOC(=O)CC | -75.9 | 122 | log10 vapour pressure (mmHg): 1.14
21 | CCC(N)C(O)c1ccccc1 (stereo not given) | 79.5 | – | –
22 | Nc1ccc(O)cc1 | 188 | 284 | log10 vapour pressure (mmHg): -4.4; ready biodegradability: readily biodegradable
23 | CCCSP(=O)(OCC)Oc1ccc(Br)cc1Cl (stereo not given) | – | – | log10 Koc (L/kg): 3.03; log10 vapour pressure (mmHg): -6.05
24 | O=C(c1ccccc1)c1cccc(C(F)(F)F)c1 | 52.5 | – | –

Row | SMILES | melting point [°C] | boiling point [°C] | also measured
25 | CC(Cl)C(C)(C)Cl (stereo not given) | – | 129 | –
26 | CCOc1ccc(C(=O)O)cc1 | 198 | – | –
27 | CCN(CC)CCOc1ccc2nc(N(C)C)sc2c1.Cl.Cl | 242 | – | –
28 | COC(CCl)OC | – | 128 | –
29 | COc1cc(C)ccc1O | 5.5 | 221 | log10 Henry constant (atm·m³/mol): -5.88
30 | CC(C)(C)c1ccc(CSc2cnn(C(C)(C)C)c(=O)c2Cl)cc1 | 112 | – | log10 vapour pressure (mmHg): -5.93
31 | Cc1ccccc1C | -25.2 | 144 | log10 Henry constant (atm·m³/mol): -2.29; log10 Koa: 3.91; log10 Koc (L/kg): 2.25; log10 biodegradation half-life (days): 0.778; log10 vapour pressure (mmHg): 0.82; ready biodegradability: readily biodegradable; log10 BCF: 1.15
32 | Cc1ccc2ccc(C)cc2c1 | 97 | 265 | log10 vapour pressure (mmHg): -2.25
33 | COc1c(Cl)c(Cl)c(O)c(Cl)c1Cl | 116 | – | –
34 | CC(=O)N1C[C@H](O)C[C@H]1C(=O)O | 132 | – | –
35 | CCOP(=O)(OCC)OP(=O)(OCC)OCC | – | – | log10 vapour pressure (mmHg): -3.58
36 | O=C(O)CCCCCCCCCCBr | 57 | – | –
37 | CC1CC(C)(C)CC(OOC(C)(C)C)(OOC(C)(C)C)C1 (stereo not given) | -30 | – | ready biodegradability: not readily biodegradable; log10 BCF: 3.96
38 | CC(C)C1CCC(C)(O)CC1 (stereo not given) | – | 208 | –
39 | O=[N+]([O-])c1cccc2cccc([N+](=O)[O-])c12 | 173 | – | –
40 | Oc1ccc2[nH]ccc2c1 | 108 | – | –
41 | Cc1nc2ccccc2s1 | 14 | 238 | log10 vapour pressure (mmHg): -1.52
42 | COC(=O)Cc1ccccc1 | – | 216 | –
43 | CCCCSCCCC | -79.7 | 185 | log10 vapour pressure (mmHg): 0.0792
44 | Clc1cc(Cl)c(Cl)c(-c2c(Cl)c(Cl)c(Cl)c(Cl)c2Cl)c1Cl | – | – | log10 biotransformation half-life (days): 2.63
45 | COc1cc(C)cc(OC)c1 | – | 244 | –
46 | NC1CCCC1 | -82.7 | 108 | –
47 | CCc1ccc(-c2ccccc2)cc1 | – | – | ready biodegradability: not readily biodegradable; log10 BCF: 2.82; log10 biotransformation half-life (days): 0.06
48 | O=C[C@H](O)[C@H](O)[C@H](O)CO | 98.5 | – | –
